{"source": "patent US9963726B2", "about": "“Fiber-containing carbohydrate composition” (Tate & Lyle Ingredients Americas LLC, priority 2006, dated 2018)", "tested_on": "healthy human subjects", "test": "Blood glucose response in healthy human subjects", "type": "in vivo", "details": "10 healthy human subjects", "protocol": "Samples containing 25 g (dsb) of the syrup were prepared as follows. 2.838 kg of filtered water was added to a jug containing a pre-weighed quantity of RCS. The lid was placed on the jug, and it was then mixed thoroughly by shaking and swirling until all syrup was dissolved. 12 oz. (350 g) of this solution contained 25 g of the test carbohydrate on a dry solids basis.\nThe control solution was prepared by mixing 25 g anhydrous glucose with 300 mL of water.\nThe samples were administered to 10 healthy human subjects. The characteristics of the subjects were: 5 male, 5 female; age, 35±10 y; body mass index, 24.0±3.8 kg/m^2. Each subject undertook nine tests on separate days which included the six test foods and on three occasions the standard glucose drink containing 25 g of available carbohydrate. Blood glucose was measured fasting and at 15, 30, 45, 60, 90 and 120 minutes after eating. Incremental areas under the blood glucose response curves (iAUC) were calculated. Each subject's iAUC after consumption of each test food was expressed as a percentage of the mean iAUC of the three glucose controls taken by the same subject. The incremental areas under the curve and relative glycemic response (RGR) of the products were: […]", "note": "Marks after values point to notes of the source that are not given here."}
{"smiles": "OC[C@H]1OC(O)[C@H](O)[C@@H](O)[C@@H]1O", "note": "(some centres unmarked) [Glucose, anhydrous glucose]", "values": [{"measurement": "iAUC (incremental area under the blood glucose response curve)", "setting": "25 g (dsb), blood glucose fasting to 120 minutes", "result": "124.4 ± 13.5^a"}, {"measurement": "RGR (relative glycemic response)", "setting": "iAUC as percentage of mean iAUC of the three glucose controls of the same subject", "result": "100^a"}]}
